USRE47245E1, “Pro-angiogenic peptides and uses thereof” (Susavion Biosciences, Inc., priority 2006, dated 2019)
Where no end group is shown, it is not given here.

Experiments:
[1] = system: peripheral blood mononuclear cells (PBMCs); assay: Regulation of cytokine release: cytokine antibody array on medium of PBMC cultures; format: cell-based, human
Description: To determine whether the peptides regulate induction or inhibition of release of cytokines, cultured peripheral blood mononuclear cells (PBMCs) were treated with one peptide embodiment of the invention and, after 4 hour incubation, the medium was collected and assayed for changes in the amounts of 40 different cytokines. The peptide construct containing four copies of WNSTL (SEQ ID NO:1), illustrated in FIG. 2A, was added at a concentration of 100 nM in each of the assays. The PBMC cultures were established with cells from Cellular Technology, Ltd. (Shaker Heights, Ohio). Approximately 3 million cells of frozen human PBMCs were thawed at 37° C. and transferred to a 50 mL conical tube where 8 mL of wash medium were added slowly. Then an additional 8 mL were added and swirled to mix. The cells were then centrifuged at 330 g for 10 min, the supernatant was removed and the pellet was resuspended in 10 mL wash medium and centrifuged as above. The washed cells were then resuspended in RPMI 1640 medium containing 10% FBS to about 6 million cells per mL and 100 μL of the suspension were added into each well of a 96-well microtiter plate and incubated overnight at 37° C. in humidified 5% CO2. After 24 hr, the medium was replaced with 200 μL fresh RPMI 1640 medium containing 10% FBS and incubated at 37° C. in humidified 5% CO2 for 2 days. For the data shown in TABLE 1, an aliquot of the peptide construct was added to samples in duplicate at a final concentration of 5 nM or 100 nM and incubated at 37° C. in humidified 5% CO2 for 4 hr. For other experiments (data not included), the incubation was continued for 24 hr. The medium was then removed and stored at […]. The samples were analyzed for production of cytokines. One set of control cells was not treated with an experimental agent. A second set of control cells was treated with LPS, the agent commonly used to induce production of a variety of inflammatory cytokines.
Assays of cytokine levels in samples of culture media were performed using methods developed by RayBiotech, Inc. (Norcross, Ga.). In this technology, membrane arrays of antibodies against cytokines were incubated with samples of media. After washing, the array was incubated with a cocktail of all antibodies tagged with biotin. The membrane was then washed free of unbound antibodies and incubated with streptavidin labeled with a fluorescent dye. After a final wash, the membrane arrays were read in a fluorescence detector and the intensities of the spots quantitated to obtain relative values.
One set of control samples was not treated with peptide and a second set of control samples was treated with lipopolysaccharide (LPS) in the absence of the peptide construct. The structure of the construct is illustrated in FIG. 2A. […] The decrease in IL-8 concentration in the peptide-treated sample, as compared with the amount of IL-8 in the sample treated with the proto-typical inflammatory agent LPS, is particularly notable. […] The increase in the proangiogenic PDGF-BB and the decrease in the inflammatory IL-8, without concomitant stimulation of inflammation, are of particular importance with respect to wound healing. […]

[2] = system: 786-0 human renal cell adenocarcinoma cell line; assay: Pro-angiogenic activity: growth of xenograft tumor in nude mouse; format: in vivo, nude mouse (nu/nu); conditions: in combination with the WNSTL construct
Description: Tumors require vascularization to obtain nutrients to support growth. Therefore, stimulation of growth of a tumor in response to administration of a construct of this invention is an indication of angiogenesis. For this example, a xenograph model system with the nude mouse (nu/nu) was used to determine the effect of peptide on growth of 786-0 human renal cell adenocarcinoma cell line injected into the flank of a mouse so as to induce a tumor. After the tumor was established, peptide was injected subcutaneously on alternate days. The weight of the tumor was estimated by calculation of the volume.
FIG. 4 illustrates data resulting from assays for pro-angiogenic activity for one embodiment of the invention. […] The peptide was also assayed in combination with Sorafenib, an anti-angiogenic drug.

[3] = system: macrophages in PBMC cultures; assay: Stimulation of phagocytosis: macrophages engulfing microspheres opsonized with anti-HIV antibodies; format: cell-based, human; conditions: PBMC cultures pretreated; control cultures 0 to 3 beads
Description: The activity of the peptides to stimulate phagocytosis was assessed by the ability of macrophages to engulf microspheres opsonized with anti-HIV antibodies. A biotin-tagged peptide epitope of a surface protein of HIV-1 was bound to streptavidin on the surface of the beads. An antibody preparation that was raised against this epitope was then bound to the HIV peptide. The beads were then washed and presented to PBMC cultures pretreated with peptides. Macrophages in cultures not treated with peptides had little, if any, phagocytic activity. In multiple control cultures, the number of beads within a macrophage-like cell ranged from 0 to 3. In the cultures treated with peptide constructs containing four copies of the peptide sequences WNSTL (SEQ ID NO:1), NQHTPR (SEQ ID NO:2), or VQATQS (SEQ ID NO:8), an average of 10 beads were counted in each phagocytic cell, with no substantial difference between peptide constructs.

[4] = PBMCs in serum, 4 hr, construct 100 nM

lipopolysaccharide [LPS, reference compound]
Relative concentration of IL-2 ([1]; PBMCs in serum, 4 hr): 90
Relative concentration of IL-3 ([1]; PBMCs in serum, 4 hr): 132
Relative concentration of IL-13 ([1]; PBMCs in serum, 4 hr): 125
Relative concentration of MIP-1a ([1]; PBMCs in serum, 4 hr): 237
Relative concentration of MIP-1d ([1]; PBMCs in serum, 4 hr): 38
change in the amount of the inflammatory cytokine IL-6 compared to untreated control samples ([1]; PBMCs in serum, 4 hr): significantly elevated
Relative concentration of Eotaxin [1, 4]: 31
Relative concentration of Eotaxin-2 [1, 4]: 469
Relative concentration of GCSF [1, 4]: 120
Relative concentration of GM-CSF [1, 4]: 106
Relative concentration of I-309 [1, 4]: 39
Relative concentration of ICAM-1 [1, 4]: 53
Relative concentration of IFN-γ [1, 4]: 158
Relative concentration of IL-1α [1, 4]: 246
Relative concentration of IL-1β [1, 4]: 47
Relative concentration of IL-4 [1, 4]: 49
Relative concentration of IL-6 [1, 4]: 4,375
Relative concentration of IL-6sR [1, 4]: 52
Relative concentration of IL-7 [1, 4]: 178
Relative concentration of IL-8 [1, 4]: 840
Relative concentration of IL-10 [1, 4]: 218
Relative concentration of IL-11 [1, 4]: 26
Relative concentration of IL-12p40 [1, 4]: 46
Relative concentration of IL-12p70 [1, 4]: 89
Relative concentration of IL-15 [1, 4]: 104
Relative concentration of IL-16 [1, 4]: 2
Relative concentration of IL-17 [1, 4]: 10
Relative concentration of IP-10 [1, 4]: 268
Relative concentration of M-CSF [1, 4]: 59
Relative concentration of MCP-2 [1, 4]: 177
Relative concentration of MIG [1, 4]: 66
Relative concentration of MIP-1b [1, 4]: 1,828
Relative concentration of PDGF-BB [1, 4]: 56
Relative concentration of RANTES [1, 4]: 114
Relative concentration of TGF-β1 [1, 4]: 62
Relative concentration of TIMP-2 [1, 4]: 92
Relative concentration of TNF-α [1, 4]: 93
Relative concentration of TNF-β [1, 4]: 95
Relative concentration of sTNF RI [1, 4]: 58
Relative concentration of sTNF RII [1, 4]: 26
relative IL-6 concentration ([1]; in one experiment, untreated control 98): 5,879

CNC(=O)c1cc(Oc2ccc(NC(=O)Nc3ccc(Cl)c(C(F)(F)F)c3)cc2)ccn1 [Sorafenib, reference compound]
effect on the peptide-enhanced tumor growth [2]: strongly (but not completely) inhibited

NQHTPR: branched construct: four copies of core sequence NQHTPR, each via GGGS linker on tri-lysine framework (also: tetramer: four copies each via GGGS linker on tri-lysine framework (branched))
Relative concentration of Eotaxin [1, 4]: 57
Relative concentration of Eotaxin-2 [1, 4]: 310
Relative concentration of IL-12p40 [1, 4]: 45
Relative concentration of IL-12p70 [1, 4]: 65
Relative concentration of IL-15 [1, 4]: 146
Relative concentration of IL-16 [1, 4]: 8
Relative concentration of IL-17 [1, 4]: 14
Relative concentration of IL-21 [1, 4]: 200
Relative concentration of M-CSF [1, 4]: 116
Relative concentration of MCP-2 [1, 4]: 90
Relative concentration of MIG [1, 4]: 100
Relative concentration of MIP-1b [1, 4]: 777
Relative concentration of TIMP-2 [1, 4]: 110
Relative concentration of TNF-β [1, 4]: 84
Relative concentration of sTNF RII [1, 4]: 26
average beads counted in each phagocytic cell [3]: 10 beads

VQATQS: construct containing four copies of core sequence VQATQS (also: four copies, branched construct)
Relative concentration of Eotaxin-2 [1, 4]: 401
Relative concentration of I-309 [1, 4]: 101
Relative concentration of IL-4 [1, 4]: 64
Relative concentration of IL-6 [1, 4]: 167
Relative concentration of IL-10 [1, 4]: 67
Relative concentration of IL-12p40 [1, 4]: 74
Relative concentration of IL-12p70 [1, 4]: 112
Relative concentration of IL-15 [1, 4]: 134
Relative concentration of IL-16 [1, 4]: 10
Relative concentration of IL-17 [1, 4]: 21
Relative concentration of IL-21 [1, 4]: 90
Relative concentration of IP-10 [1, 4]: 334
Relative concentration of M-CSF [1, 4]: 90
Relative concentration of MCP-1 [1, 4]: 1,966
Relative concentration of PDGF-BB [1, 4]: 83
Relative concentration of TGF-β1 [1, 4]: 83
Relative concentration of TIMP-2 [1, 4]: 175
Relative concentration of TNF-α [1, 4]: 98
Relative concentration of TNF-β [1, 4]: 91
Relative concentration of sTNF RI [1, 4]: 75
Relative concentration of sTNF RII [1, 4]: 20
average beads counted in each phagocytic cell [3]: 10 beads
